Experimental data published in patent US20190224341A1, “RENAL CLEARABLE ORGANIC NANOCARRIERS” (The General Hospital Corporation, priority 2016, published 2019).

Assay: In vivo biodistribution and pharmacokinetics in CD-1 mice
Details: i.v. 10 nmol
Experimental: Six weeks old CD-1 mice (male; 25-30 g) were purchased from Charles River Laboratories (Wilmington, Mass.). Mice were maintained under anesthesia by intraperitoneal injection with 100 mg/kg ketamine and 10 mg/kg xylazine (Webster Veterinary, Fort Devens, MA) for the entire duration of the experiment. The end of the tail was cut to enable blood extraction. Before injection, blood was then sampled in heparinized capillary tubes (Fisher Scientific, Pittsburgh, Pa.) as a reference and collected blood was stored in an ice box to prevent clotting. […] Mice were imaged using the in-house built real-time intraoperative MR imaging system. A 760 nm excitation laser source (4 mW/cm) was used with white light (400-650 nm; 40,000 lux). Color and MR fluorescence images were acquired simultaneously with customized software at rates of up to 15 Hz over a field of view with 15 cm in diameter. After 4 h post-injection, mice were sacrificed to image organs and collected urine from the bladder. At least 3 mice were analyzed for each sample.
The collected blood samples were centrifuged for 20 min at 3000 rpm in order to separate serum and blood plasma, and supernatants were then filled into capillary microtubes. Fluorescence intensities of the microtubes were measured using the in-house built MR imaging system. […]

CC1(C)C(/C=C/C2=C(c3ccc(CCC(=O)O)cc3)C(=C/C=C3/N(CCC[N+](C)(C)C)c4ccc(S(=O)(=O)O)cc4C3(C)C)/CCC2)=[N+](CCC[N+](C)(C)C)c2ccc(S(=O)(=O)O)cc21 [ZW800-1C]
Signal-to-background ratio (SBR) of each organ against muscle (4 h, resected organs): highest SBR in the kidneys
Biodistribution by NIR fluorescence imaging (4 h post-injection): excretes to the bladder 4 h after injection
